From ChEMBL document CHEMBL4270626, “Synthesis and antitumor activity of epothilone B” (Eur J Med Chem, 2018)

How the values were obtained:
U-266 = assay: Antiproliferative activity against human U266 cells assessed as inhibition of cell proliferation; assay type: functional, cell-based
[1] = Inhibition of paclitaxel binding to microtubule (unknown origin); parameters: species or system Homo sapiens
[2] = Antiproliferative activity against human RPMI8226/MR20 cells assessed as inhibition of cell proliferation; assay type: functional, cell-based; conditions: RPMI-8226
KB 3-1 = assay: Cytotoxicity against human KB3-1 cells; assay type: functional, cell-based
MM1.S = assay: Antiproliferative activity against human MM1S cells assessed as inhibition of cell proliferation; assay type: functional, cell-based
Tubulin = assay: […] in human MCF7 cells assessed as induction of mitotic arrest; assay type: cell-based
[3] = Inhibition of GFP-tagged alpha-tubulin (unknown origin) expressed in human MCF7 cells assessed as disruption of microtubule polymerization; assay type: cell-based
KB-V1 = assay: Cytotoxicity against human KBV1 cells; assay type: functional, cell-based
[4] = Antiproliferative activity against human 8226/LR-5 cells assessed as inhibition of cell proliferation; assay type: functional, cell-based
HCT-116 = assay: Antiproliferative activity against human HCT116 cells assessed as inhibition of cell proliferation; assay type: functional, cell-based
HeLa = assay: Cytotoxicity against human HeLa cells; assay type: functional, cell-based
RPMI-8226 = assay: Antiproliferative activity against human […] cells assessed as inhibition of cell proliferation; assay type: functional, cell-based
Hs-578T = assay: Cytotoxicity against human Hs 578T cells; assay type: functional, cell-based

## C/C(=C\c1csc(C)n1)[C@@H]1C[C@@H]2O[C@]2(C)CCC[C@H](C)[C@H](O)[C@@H](C)C(=O)C(C)(C)[C@@H](O)CC(=O)O1 [PATUPILONE]
U-266
  IC50: 1 to 10 nM
[1]
  IC50: 3.3 nM
[2]
  IC50: 1 to 10 nM
KB 3-1
  IC50: 3 to 92 nM
MM1.S
  IC50: 1 to 10 nM
Tubulin
  IC50: 3.5 nM
[3]
  IC50: 3.5 nM
KB-V1
  IC50: 3 to 92 nM
[4]
  IC50: 1 to 10 nM
HCT-116
  IC50: 0.8 nM
HeLa
  IC50: 3 to 92 nM
RPMI-8226
  IC50: 1 to 10 nM
Hs-578T
  IC50: 3 to 92 nM
